The values that follow come from patent publication US20160051513A1, “USE OF 4-BENZAMIDE IN THE TREATMENT OF NEUROPATHIC PAIN” (LES LABORATOIRES SERVIER, priority 2013, published 2016).

Counter-ions that a name gives are not always drawn.

Data set [1] has as its system mechanical hyperalgesia caused by chronic constriction (CCI) of the sciatic nerve. Kind of data set: Mechanical hyperalgesia (vocalisation threshold) in model of neuropathy caused by chronic constriction (CCI) of the sciatic nerve. The data set is classed as in vivo, rat. The following applies: for reversal of the hyperalgesia (vocalisation threshold versus before the procedure): after 4 days of chronic treatment. The source says:
The effects of 4-{3-[cis-hexahydrocyclopenta[c]pyrrol-2(1H)-yl]propoxy}benzamide and of gabapentin were studied on the mechanical hyperalgesia caused in the rat by chronic constriction (CCI) of the sciatic nerve.
This model of post-traumatic neuropathic pain closely reproduces the symptoms of neuropathic pain which can be observed in humans, namely mechanical and thermal hyperalgesia, mechanical allodynia and spontaneous pain (Bennett and Xie, Pain, 1988, 33(1):87-107; Munger et al., Exp Neurol, 1992, 118(2):204-14; Kim et al., Brain Res, 1997, 113(2):200-6.).

The test system of data set [2] is thermal allodynia after administration of oxaliplatin (OXA). Kind of data set: Thermal (cold) allodynia, tail withdrawal time in cold bath at 10° C, model of neuropathy caused by oxaliplatin. The data set is classed as in vivo, rat. The following applies: for reversal of the allodynia (tail withdrawal time versus before the procedure): oxaliplatin 6 mg/kg i.p. The source says: The effects of 4-{3-[cis-hexahydrocyclopenta[c]pyrrol-2(1H)-yl]propoxy}benzamide and of two reference treatments for neuropathic pain (gabapentin and pregabalin) were studied on the thermal allodynia which occurs in rats after administration of oxaliplatin (OXA). Oxaliplatin is a synthetic anticancer medication from the group of agents derived from platinum, especially used in the treatment of cancers of the colon and rectum.
In the rat, acute administration of oxaliplatin specifically causes cold hyperalgesia and allodynia in the subsequent 24 hours, which lasts for several days. This animal model therefore closely mimics the painful symptoms observed in humans after infusion of oxaliplatin, especially the rapid appearance of intense sensory disturbances caused by cold, of the hyperalgesic and allodynic type (Ling et al. Toxicology. 2007; 234(3):176-84).
The results of this study confirm that, 36 hours after acute intraperitoneal administration of oxaliplatin (6 mg/kg), the rats develop cold allodynia, reflected by very rapid withdrawal of their tail when it is placed in a cold bath at 10° C. Indeed, this withdrawal time is, on average, half as long as that of the rats before administration of oxaliplatin (FIG. 3).

The test system of data set [3] is model of diabetic neuropathy caused by streptozocin (STZ). Kind of data set: Mechanical hyperalgesia (paw pressure vocalisation threshold) in model of diabetic neuropathy caused by streptozocin. The format is in vivo, rat. The following applies: for effect of reference treatments compared with the compound: STZ rats. The protocol: The effects of 4-{3-[cis-hexahydrocyclopenta[c]pyrrol-2(1H)-yl]propoxy}benzamide and of two reference treatments for neuropathic pain (gabapentin and pregabalin) were studied in the rat, in the model of diabetic neuropathy caused by streptozocin (STZ).
In rats, administration of high-dose STZ (>35 mg/kg) causes diabetes which is similar to hyperglycaemic diabetes mellitus in humans. This is brought about by histopathological changes in the beta cells of islets of Langerhans and is associated with neuropathic pain. This pain is made manifest especially by mechanical hyperalgesia which can be attested by the lowering of the animal's vocalisation threshold when an increasing pressure is applied to the paw (Courteix et al., Pain, 1993, 53(1):81-8). During the test, a weight is placed on the rat's paw; its weight (in grams) increases until the animal vocalises. In this experiment, 21 days after the intraperitoneal injection of STZ (72 mg/kg), the rats develop diabetes characterised especially by hyperglycaemia (controlled during the experiment by injection of insulin) and associated with mechanical hyperalgesia. Indeed, the vocalisation threshold of the rats is lowered by half compared to the threshold which those animals had prior to injection of STZ (FIG. 1).

In data set [4] the test system is mechanical hyperalgesia caused by chronic constriction (CCI) of the sciatic nerve. Kind of data set: Mechanical hyperalgesia (vocalisation threshold) in CCI model, compound and agomelatine on their own or in association. The format is in vivo, rat. The following applies: every day for 5 days, S 0.3 mg of base/kg per os, agomelatine 10 mg/kg i.p., alone or in association. The protocol: The effects of 4-{3-[cis-hexahydrocyclopenta[c]pyrrol-2(1H)-yl]propoxy}benzamide and agomelatine, administered on their own or in association, were studied on the mechanical hyperalgesia caused in the rat by chronic constriction (CCI) of the sciatic nerve (see Example B).
The vocalisation threshold was measured in the animals every day for 5 days, before and 45 minutes after the administration of 4-{3-[cis-hexahydrocyclopenta[c]pyrrol-2(1H)-yl]-propoxy}benzamide hydrochloride at a dose of 0.3 mg of base/kg per os (the compound being referred to as S in FIG. 4) and agomelatine at a dose of 10 mg/kg i.p., on their own or in association.

Data set [5] deals with anxiety associated with the neuropathic pain caused by chronic constriction (CCI) of the sciatic nerve. In words: Anxiety associated with neuropathic pain caused by CCI (time in open parts of cylindrical corridor). The following applies: CCI rat, 4 weeks after constriction. The format is in vivo. The protocol: The effects of 4-{3-[cis-hexahydrocyclopenta[c]pyrrol-2(1H)-yl]propoxy}benzamide were studied on the anxiety associated with the neuropathic pain caused by chronic constriction (CCI) of the sciatic nerve in the rat.
In this study, the rats are placed for 5 minutes in a cylindrical corridor which has two parts closed off by a wall and two opposite parts which are open. The test creates a conflict between the rodent's natural desire to explore and its fear of open spaces which make it vulnerable to predators. Anxiety is measured in this test by the time spent by the rat in exploring the open parts of the cylindrical corridor (Bleickardt et al. Psychopharmacology (Berl), 2009, 202(4):711-8; Alba-Delgado et al. Biol. Psychiatry, 2013, 73(1):54-62).

Data set [6] deals with depression associated with the neuropathic pain caused by CCI. In words: Depression associated with neuropathic pain caused by CCI (duration of immobility in cylinder filled with water). The data set is classed as in vivo. The following applies: CCI rat, 4 weeks after constriction. The protocol:
The effects of 4-{3-[cis-hexahydrocyclopenta[c]pyrrol-2(1H)-yl]propoxy}benzamide were studied on the depression associated with the neuropathic pain caused by CCI in the rat. In this study, the rat is placed for 5 minutes in a cylinder filled with water, out of which it is unable to climb. After struggling in the water, the animal becomes immobile, reflecting “behavioural despair”, which occurs when the animal realises that it will not be able to escape. Depressive behaviour is measured in this test by the duration of immobility.

The nature of data set [7]: Clinical acceptability profile. The data set is classed as in vivo, human.

Consider `NC(=O)c1ccc(OCCCN2C[C@H]3CCC[C@H]3C2)cc1` [S, 4-{3-[cis-hexahydrocyclopenta[c]pyrrol-2(1H)-yl]propoxy}benzamide hydrochloride], for which, in data set [1] (12 days after CCI, 1 mg of base/kg per os), the “anti-hyperalgesic effect (vocalisation threshold)” value is reported as “significant anti-hyperalgesic effect”. Further, the “reversal of the hyperalgesia (vocalisation threshold versus before the procedure)” value in data set [1] was “complete reversal of the hyperalgesia”. Further, in data set [2] (36 hours after oxaliplatin 6 mg/kg i.p., 0.3 mg of base/kg per os, from D1, 1 hour after a single administration), the “anti-allodynic effect (tail withdrawal time, cold bath 10° C)” value was “significant anti-allodynic effect”. In data set [2], the “reversal of the allodynia (tail withdrawal time versus before the procedure)” value is “complete reversal of the allodynia”. In addition, the “value of the vocalisation threshold relative to non-diabetic animals” value in data set [3] (3 mg of base per kg per os, from the second day of administration) is on record as “the same as that of non-diabetic animals”. Further, the “vocalisation threshold compared to animals having been given the carrier” value in data set [3] (STZ 72 mg/kg i.p., 21 days after, 3 mg of base per kg per os) is “substantial and significant increase in the vocalisation threshold”. Moreover, in data set [4], the “anti-hyperalgesic effect (vocalisation threshold), chronic administration” value is “moderate anti-hyperalgesic effect”.
For `NC(=O)c1ccc(OCCCN2C[C@H]3CCC[C@H]3C2)cc1` [4-{3-[cis-hexahydrocyclopenta[c]pyrrol-2(1H)-yl]-propoxy}benzamide], the “effects on the anxiety associated with the neuropathic pain” value in data set [5] is listed as “beneficial effects”. In data set [6], the “effects on the depression associated with the neuropathic pain” value is “beneficial effects”. Also, the acceptability profile result in data set [7] (healthy volunteers) and in data set [7] (patients suffering from Alzheimer's disease) was “good acceptability profile” each time. In data set [3] (administered every day for 5 days), the “beneficial effect on vocalisation threshold over time” value was “maintained over time”.
Turning to `CC(C)C[C@H](CN)CC(=O)O` [pregabalin, reference compound], in data set [2], the “reversal of the allodynia (tail withdrawal time versus before the procedure)” value is recorded as “rapid reversal is also observed”. Further, the “effect of reference treatments compared with the compound” value in data set [3] is “entirely comparable”.
Regarding `COc1ccc2cccc(CCNC(C)=O)c2c1` [agomelatine, reference compound], the “anti-hyperalgesic effect (vocalisation threshold), chronic administration” value in data set [4] was “moderate and very inconstant anti-hyperalgesic effect”.
Regarding `NCC1(CC(=O)O)CCCCC1` [gabapentin, reference compound], the “reversal of the hyperalgesia (vocalisation threshold versus before the procedure)” value in data set [1] is given as “reversal is also observed”. The “reversal of the allodynia (tail withdrawal time versus before the procedure)” value in data set [2] was “rapid reversal is also observed”. The “effect of reference treatments compared with the compound” value in data set [3] is reported as “entirely comparable”.
